The source of these data is patent US10800792B2, “Inhibitors of Bruton's tyrosine kinase and method of their use” (JANSSEN PHARMACEUTICA NV, priority 2015, dated 2020).

This assay deals with unphosphorylated-BTK kinase domain (UP-BTK), GST-tagged human BTK (389-659aa) (Homo sapiens (Human), UniProt Q06187). The experiment in a line: BTK kinase Lanthascreen binding assay. The conditions noted are these: unphosphorylated-BTK kinase domain, 50 nM Tracer 236, 60 minutes; pIC50 = negative log of the IC50 in molar. The method in brief:
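A fluorescent tracer is bound to unphosphorylated BTK; test compound is added to compete it off; the Lanthascreen signal is read and IC50 is fitted, then reported as its negative log in molar.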

Molecules are shown by their SMILES. Where only a bound is given, the exact number is not on record here.

Chain of unphosphorylated-BTK kinase domain (UP-BTK), GST-tagged human BTK (389-659aa) (Q06187 389-659): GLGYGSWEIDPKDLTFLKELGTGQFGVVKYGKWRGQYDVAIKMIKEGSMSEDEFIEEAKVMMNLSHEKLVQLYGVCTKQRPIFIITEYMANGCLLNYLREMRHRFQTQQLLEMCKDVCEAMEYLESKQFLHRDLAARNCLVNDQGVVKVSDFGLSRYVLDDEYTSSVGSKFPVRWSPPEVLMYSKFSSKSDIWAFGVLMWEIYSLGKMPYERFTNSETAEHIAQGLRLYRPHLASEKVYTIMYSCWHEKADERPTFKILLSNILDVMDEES

Consider `C=CC(=O)N1CCC[C@@H](NC(=O)c2sc3nccc4c3c2NC(=O)N4c2cc3ccccc3s2)C1` [Example 427, (R)—N-(1-Acryloylpiperidin-3-yl)-5-(benzo[b]thiophen-2-yl)-4-oxo-4,5-dihydro-3H-1-thia-3,5,8-triazaacenaphthylene-2-carboxamide], for which the “BTK_I_binding pIC50” value is reported as 6.3. As to `O=C(N[C@@H]1CCCNC1)c1sc2nccc3c2c1NC(=O)N3c1cc2ccccc2s1` [Example 428, (R)-5-(Benzo[b]thiophen-2-yl)-4-oxo-N-(piperidin-3-yl)-4,5-dihydro-3H-1-thia-3,5,8-triazaacenaphthylene-2-carboxamide], the “BTK_I_binding pIC50” value is less than 5. In the case of `O=C(N[C@@H]1CCCNC1)c1sc2nccc3c2c1NC(=O)N3c1ccc2ccccc2c1` [Example 429, (R)-5-(Naphthalen-2-yl)-4-oxo-N-(piperidin-3-yl)-4,5-dihydro-3H-1-thia-3,5,8-triazaacenaphthylene-2-carboxamide], the “BTK_I_binding pIC50” value is reported as less than 5.

Regarding `O=C(N[C@@H]1CCCNC1)c1sc2nccc3c2c1NC(=O)N3c1ccc(Cc2ccccc2)cc1` [Example 430, (R)-5-(4-Benzylphenyl)-4-oxo-N-(piperidin-3-yl)-4,5-dihydro-3H-1-thia-3,5,8-triazaacenaphthylene-2-carboxamide], the “BTK_I_binding pIC50” value turned out to be 6.3. Regarding `O=C(N[C@@H]1CCCNC1)c1sc2nccc3c2c1NC(=O)N3c1ccn(Cc2ccccc2)n1` [Example 431, (R)-5-(1-Benzyl-1H-pyrazol-3-yl)-4-oxo-N-(piperidin-3-yl)-4,5-dihydro-3H-1-thia-3,5,8-triazaacenaphthylene-2-carboxamide], the “BTK_I_binding pIC50” value is less than 5.

On to `Cc1cc(Oc2ccccc2)ccc1N1C(=O)Nc2c(C(=O)NC3(CO)CCOCC3)sc3nccc1c23` [Example 436, N-(4-(Hydroxymethyl)tetrahydro-2H-pyran-4-yl)-5-(*S)-(2-methyl-4-phenoxyphenyl)-4-oxo-4,5-dihydro-3H-1-thia-3,5,8-triazaacenaphthylene-2-carboxamide], for which the “BTK_I_binding pIC50” value is given as 7.3. The figure for `Cc1cc(Oc2ccccc2)ccc1N1C(=O)Nc2c(C(=O)NC3(CO)CCOCC3)sc3nccc1c23` [Example 437, N-(4-(Hydroxymethyl)tetrahydro-2H-pyran-4-yl)-5-(*R)-(2-methyl-4-phenoxyphenyl)-4-oxo-4,5-dihydro-3H-1-thia-3,5,8-triazaacenaphthylene-2-carboxamide] is 5.8.

In the case of `CN(C)C/C=C/C(=O)N1CC[C@@H](NC(=O)c2sc3nccc4c3c2NC(=O)N4c2ccc(Oc3ccccc3)cc2)C1` [Example 440, (R,E)-N-(1-(4-(Dimethylamino)but-2-enoyl)pyrrolidin-3-yl)-4-oxo-5-(4-phenoxyphenyl)-4,5-dihydro-3H-1-thia-3,5,8-triazaacenaphthylene-2-carboxamide], the “BTK_I_binding pIC50” value amounted to 7.6.

For `C=CC(=O)N1CC[C@@H](NC(=O)c2sc3nccc4c3c2NC(=O)N4c2ccc(Oc3ccccc3)cc2)C1` [Example 443, (R)—N-(1-Acryloylpyrrolidin-3-yl)-4-oxo-5-(4-phenoxyphenyl)-4,5-dihydro-3H-1-thia-3,5,8-triazaacenaphthylene-2-carboxamide], the “BTK_I_binding pIC50” value was 7.7. Consider `C=CC(=O)N1CCC[C@@H](NC(=O)c2sc3nccc4c3c2NC(=O)N4c2ccc(C(C)C)cc2C)C1` [Example 444, (R)—N-(1-Acryloylpiperidin-3-yl)-5-(4-isopropyl-2-methylphenyl)-4-oxo-4,5-dihydro-3H-1-thia-3,5,8-triazaacenaphthylene-2-carboxamide], for which the “BTK_I_binding pIC50” value came out at 7.2.

With `C=CC(=O)N1CC[C@@H](NC(=O)c2sc3nccc4c3c2NC(=O)N4c2ccc(C(C)C)cc2C)C1` [Example 445, (R)—N-(1-Acryloylpyrrolidin-3-yl)-5-(4-isopropyl-2-methylphenyl)-4-oxo-4,5-dihydro-3H-1-thia-3,5,8-triazaacenaphthylene-2-carboxamide], the “BTK_I_binding pIC50” value worked out at 6.7.

On to `Cc1cc(C(C)C)ccc1N1C(=O)Nc2c(C(=O)N[C@@H]3CCCNC3)sc3nccc1c23` [Example 446, (R)-5-(4-Isopropyl-2-methylphenyl)-4-oxo-N-(piperidin-3-yl)-4,5-dihydro-3H-1-thia-3,5,8-triazaacenaphthylene-2-carboxamide], for which the “BTK_I_binding pIC50” value is on record as 5.8. In the case of `Cc1cc(C(C)C)ccc1N1C(=O)Nc2c(C(=O)N[C@@H]3CCCN(C)C3)sc3nccc1c23` [Example 447, (R)-5-(4-Isopropyl-2-methylphenyl)-N-(1-methylpiperidin-3-yl)-4-oxo-4,5-dihydro-3H-1-thia-3,5,8-triazaacenaphthylene-2-carboxamide], the “BTK_I_binding pIC50” value is 5.6. The figure for `C=CC(=O)N1CCC(CNC(=O)c2sc3nccc4c3c2NC(=O)N4c2ccc(Oc3ccccc3)cc2)C1` (stereo not shown) [Example 452, N-((1-Acryloylpyrrolidin-3-yl)methyl)-4-oxo-5-(4-phenoxyphenyl)-4,5-dihydro-3H-1-thia-3,5,8-triazaacenaphthylene-2-carboxamide] is 7.0. On to `O=C(NCC1CCNC1)c1sc2nccc3c2c1NC(=O)N3c1ccc(Oc2ccccc2)cc1` (stereo not shown) [Example 453, 4-Oxo-5-(4-phenoxyphenyl)-N-(pyrrolidin-3-ylmethyl)-4,5-dihydro-3H-1-thia-3,5,8-triazaacenaphthylene-2-carboxamide], for which the “BTK_I_binding pIC50” value is recorded as 6.4. With `O=C(N[C@@H]1CCCN(C(=O)n2ccnc2)C1)c1sc2nccc3c2c1NC(=O)N3c1ccc2c(c1)OC(F)(F)O2` [Example 454, (R)—N-(1-(1H-Imidazole-1-carbonyl)piperidin-3-yl)-5-(2,2-difluorobenzo[d][1.3]dioxol-5-yl)-4-oxo-4,5-dihydro-3H-1-thia-3,5,8-triazaacenaphthylene-2-carboxamide], the “BTK_I_binding pIC50” value was less than 5. On to `C=CC(=O)N1CCC[C@@H](NC(=O)c2sc3nccc4c3c2NC(=O)N4c2ccc(OC)c(C(F)(F)F)c2)C1` [Example 455, (R)—N-(1-Acryloylpiperidin-3-yl)-5-(4-methoxy-3-(trifluoromethyl)phenyl)-4-oxo-4,5-dihydro-3H-1-thia-3,5,8-triazaacenaphthylene-2-carboxamide], for which the “BTK_I_binding pIC50” value is less than 5.

Regarding `C=CC(=O)N1CCC[C@@H](NC(=O)c2sc3nccc4c3c2NC(=O)N4c2ccc(OC3CCC3)cc2C)C1` [Example 456, (R)—N-(1-Acryloylpiperidin-3-yl)-5-(4-cyclobutoxy-2-methylphenyl)-4-oxo-4,5-dihydro-3H-1-thia-3,5,8-triazaacenaphthylene-2-carboxamide], the “BTK_I_binding pIC50” value is 7.7. `C=CC(=O)N1CCC[C@@H](NC(=O)c2sc3nccc4c3c2NC(=O)N4c2ccc(OC3CCC3)cc2)C1` [Example 457, (R)—N-(1-Acryloylpiperidin-3-yl)-5-(4-cyclobutoxyphenyl)-4-oxo-4,5-dihydro-3H-1-thia-3,5,8-triazaacenaphthylene-2-carboxamide]: the “BTK_I_binding pIC50” value is on record as 7.6.

Turning to `O=C(NC1CCCNC1=O)c1sc2nccc3c2c1NC(=O)N3c1ccc(Oc2ccccc2)cc1` (stereo not shown) [Example 458, 4-Oxo-N-(2-oxopiperidin-3-yl)-5-(4-phenoxyphenyl)-4,5-dihydro-3H-1-thia-3,5,8-triazaacenaphthylene-2-carboxamide], the “BTK_I_binding pIC50” value was found to be 6.2. Regarding `COc1ccc(N2C(=O)Nc3c(C(=O)N[C@@H]4CCCNC4)sc4nccc2c34)cc1C(F)(F)F` [Example 459, (R)-5-(4-Methoxy-3-(trifluoromethyl)phenyl)-4-oxo-N-(piperidin-3-yl)-4,5-dihydro-3H-1-thia-3,5,8-triazaacenaphthylene-2-carboxamide], the “BTK_I_binding pIC50” value was less than 5. Next, `Cc1ccc(N2C(=O)Nc3c(C(=O)N[C@@H]4CCCNC4)sc4nccc2c34)cc1Cl` [Example 460, (R)-5-(3-Chloro-4-methylphenyl)-4-oxo-N-(piperidin-3-yl)-4,5-dihydro-3H-1-thia-3,5,8-triazaacenaphthylene-2-carboxamide]: 5.3; `Cc1ccc(N2C(=O)Nc3c(C(=O)N[C@@H]4CCCNC4)sc4nccc2c34)cc1C(F)(F)F` [Example 461, (R)-5-(4-Methyl-3-(trifluoromethyl)phenyl)-4-oxo-N-(piperidin-3-yl)-4,5-dihydro-3H-1-thia-3,5,8-triazaacenaphthylene-2-carboxamide]: 5.0; `O=C(NCC1CCCO1)c1sc2nccc3c2c1NC(=O)N3c1ccc(Oc2ccccc2)cc1` (stereo not shown) [Example 462, 4-Oxo-5-(4-phenoxyphenyl)-N-((tetrahydrofuran-2-yl)methyl)-4,5-dihydro-3H-1-thia-3,5,8-triazaacenaphthylene-2-carboxamide]: 6.4. For the compound `C=CC(=O)N1C[C@H](NC(=O)c2sc3nccc4c3c2NC(=O)N4c2ccc(Oc3ccccc3)cc2)[C@@H](O)C1` [Example 463, N-((3S,4S)-1-Acryloyl-4-hydroxypyrrolidin-3-yl)-4-oxo-5-(4-phenoxyphenyl)-4,5-dihydro-3H-1-thia-3,5,8-triazaacenaphthylene-2-carboxamide], the “BTK_I_binding pIC50” value was 7.9. Consider `O=C(N[C@H]1CNC[C@@H]1O)c1sc2nccc3c2c1NC(=O)N3c1ccc(Oc2ccccc2)cc1` [Example 464, N-((3S,4S)-4-Hydroxypyrrolidin-3-yl)-4-oxo-5-(4-phenoxyphenyl)-4,5-dihydro-3H-1-thia-3,5,8-triazaacenaphthylene-2-carboxamide], for which the “BTK_I_binding pIC50” value is listed as 6.8.

Take `O=C(N[C@@H]1CCCNC1)c1sc2nccc3c2c1NC(=O)N3c1cccc(Cc2ccccc2)c1` [Example 465, (R)-5-(3-Benzylphenyl)-4-oxo-N-(piperidin-3-yl)-4,5-dihydro-3H-1-thia-3,5,8-triazaacenaphthylene-2-carboxamide]: the “BTK_I_binding pIC50” value is reported as 6.2. `O=C(N[C@@H]1CCCNC1)c1sc2nccc3c2c1NC(=O)N3c1cccc(Oc2ccccc2)c1` [Example 466, (R)-4-Oxo-5-(3-phenoxyphenyl)-N-(piperidin-3-yl)-4,5-dihydro-3H-1-thia-3,5,8-triazaacenaphthylene-2-carboxamide]: the “BTK_I_binding pIC50” value came to 6.7.
